Like-named read-outs stand apart in the source and are kept apart here.
Legend:
Caco2 cell line = experiment: Proliferation assay (Caco2 cell line); assay type: cell-based; details: Homo sapiens, Caco-2, 96 h, read-out: Biological Assay 2: Proliferation assay (Caco2 cell line) median IC50
Experimental: (§1) Cultivated tumor cells (cells were ordered from ATCC, except HeLa-MaTu and HeLa-MaTu-ADR, which were ordered from EPO-GmbH, Berlin) were plated at a density of 1000 to 5000 cells/well, depending on the growth rate of the respective cell line, in a 96-well multititer plate in 200 μL of their respective growth medium supplemented 10% fetal calf serum. After 24 hours, the cells of one plate (zero-point plate) were stained with crystal violet (see below), while the medium of the other plates was replaced by fresh culture medium (200 μL), to which the test substances were added in various concentrations (0 μM, as well as in the range of 0.001-10 μM; the final concentration of the solvent dimethyl sulfoxide was 0.5%). The cells were incubated for 4 days in the presence of test substances. Cell proliferation was determined by staining the cells with crystal violet: the cells were fixed by adding 20 μL/measuring point of an 11% glutaric aldehyde solution for 15 minutes at room temperature. After three washing cycles of the fixed cells with water, the plates were dried at room temperature. The cells were stained by adding 100 μL/measuring point of a 0.1% crystal violet solution (pH 3.0). After three washing cycles of the stained cells with water, the plates were dried at room temperature. The dye was dissolved by adding 100 μl/measuring point of a 10% acetic acid solution. Absorbtion was determined by photometry at a wavelength of 595 nm. The change of cell number, in percent, was calculated by normalization of the measured values to the absorbtion values of the zero-point plate (=0%) and the absorbtion of the untreated (0 μm) cells (=100%). The IC50 values were determined by means of a 4 parameter fit.

HeLa cell line = experiment: Proliferation assay (HeLa cell line); assay type: cell-based; details: Homo sapiens, 96 h, read-out: Biological Assay 2: Proliferation assay (HeLa cell line) median IC50
Experimental: as §1

DU145 cell line = experiment: Proliferation assay (DU145 cell line); assay type: cell-based; details: Homo sapiens, DU-145, 96 h, read-out: Biological Assay 2: Proliferation assay (DU145 cell line) median IC50
Experimental: as §1

[1] = biological target: T1, catalytic domain of human Bub1 (amino acids 704-1085) (Homo sapiens, UniProt O43683); experiment: Bub1 kinase assay (TR-FRET); assay type: biochemical
T1 construct: catalytic domain of human Bub1 (amino acids 704-1085); His6 (N); made in house; host or cells: Hi5 insect cells
T1 sequence (O43683 704-1085): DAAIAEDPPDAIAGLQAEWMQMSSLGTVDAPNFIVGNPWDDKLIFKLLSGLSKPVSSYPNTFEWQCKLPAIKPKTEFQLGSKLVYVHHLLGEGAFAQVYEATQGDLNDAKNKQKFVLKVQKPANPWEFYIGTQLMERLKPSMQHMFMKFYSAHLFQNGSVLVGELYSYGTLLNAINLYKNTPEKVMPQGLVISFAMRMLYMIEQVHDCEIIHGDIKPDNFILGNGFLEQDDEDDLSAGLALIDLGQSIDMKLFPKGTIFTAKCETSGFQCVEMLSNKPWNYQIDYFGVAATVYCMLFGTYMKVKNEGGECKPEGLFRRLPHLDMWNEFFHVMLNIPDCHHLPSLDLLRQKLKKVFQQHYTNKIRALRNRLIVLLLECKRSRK

HeLa-MaTu-ADR cell line = experiment: Proliferation assay (HeLa-MaTu-ADR cell line); assay type: cell-based; details: 96 h, read-out: Biological Assay 2: Proliferation assay (HeLa-MaTu-ADR cell line) median IC50
Experimental: as §1

NCl-H460 cell line = experiment: Proliferation assay (NCI-H460 cell line); assay type: cell-based; details: Homo sapiens, NCI-H460, 96 h, read-out: Biological Assay 2: Proliferation assay (NCl-H460 cell line) median IC50
Experimental: as §1

B16F10 cell line = experiment: Proliferation assay (B16F10 cell line); assay type: cell-based; details: Mus musculus, B16-F10, 96 h, read-out: Biological Assay 2: Proliferation assay (B16F10 cell line) median IC50
Experimental: as §1

[2] = 10 μM ATP, 1 μM peptide substrate, TR-FRET, read-out: Biological Assay 1: Bub1 kinase assay median IC50
[3] = Caco2, 4 days incubation, crystal violet staining
[4] = DU145, 4 days incubation, crystal violet staining
[5] = HeLa-MaTu-ADR, 4 days incubation, crystal violet staining
[6] = NCl-H460, 4 days incubation, crystal violet staining
[7] = B16F10, 4 days incubation, crystal violet staining

| Structure (SMILES) | IC50 (Caco2 cell line) [µM] | IC50 (HeLa cell line) [µM] | IC50 (DU145 cell line) [µM] | IC50 [1, 2] [µM] | IC50 (HeLa-MaTu-ADR cell line) [µM] | IC50 (NCl-H460 cell line) [µM] | IC50 (B16F10 cell line) [µM] | IC50 (HeLa cell line; 4 days incubation, crystal violet staining) [µM] | IC50 (Caco2 cell line; [3]) [µM] | IC50 (DU145 cell line; [4]) [µM] | IC50 [1] [µM] | IC50 (HeLa-MaTu-ADR cell line; [5]) [µM] | IC50 (NCl-H460 cell line; [6]) [µM] | IC50 (B16F10 cell line; [7]) [µM] |
| --- | --- | --- | --- | --- | --- | --- | --- | --- | --- | --- | --- | --- | --- | --- |
| CCOc1cc(F)c(Cn2nc(-c3nc(N)c(OC)c(Nc4ccncn4)n3)c(C)c2C2CC2)c(F)c1 [Example 2-1-5, 2-[5-cyclopropyl-1-(4-ethoxy-2,6-difluorobenzyl)-4-methyl-1H-pyrazol-3-yl]-5-methoxy-N-(pyrimidin-4-yl)pyrimidine-4,6-diamine] | 1.9 | 5.1 | 6.9 | 0.0053 | 3.5 | 7.4 | 1.8 |  |  |  |  |  |  |  |
| CCOc1cc(F)c(Cn2nc(-c3nc(Nc4ccncn4)nc(Nc4ccncn4)n3)c(C)c2C2CC2)c(F)c1 [Example 2-2-9, 6-[5-cyclopropyl-1-(4-ethoxy-2,6-difluorobenzyl)-4-methyl-1H-pyrazol-3-yl]-N,N′-di(pyrimidin-4-yl)-1,3,5-triazine-2,4-diamine] |  | 1.7 |  |  |  |  |  |  | 3.5 | 3.2 | 1.7 | 10 | 9.9 | 8.8 |
| CCNC(=O)Nc1cc(Nc2ccncc2)nc(-c2nn(Cc3c(F)cc(OCC)cc3F)c(C3CC3)c2C)n1 [Example 2-1-10, 1-{2-[5-cyclopropyl-1-(4-ethoxy-2,6-difluorobenzyl)-4-methyl-1H-pyrazol-3-yl]-6-(pyridin-4-ylamino)pyrimidin-4-yl}-3-ethylurea] | 1.4 | 1.7 | 2.8 | 0.048 | 1.1 | 1.5 | 1.2 |  |  |  |  |  |  |  |

The next lines start with results.

| IC50 (Caco2 cell line) [µM] | IC50 (HeLa cell line) [µM] | IC50 (DU145 cell line) [µM] | IC50 [1, 2] [µM] | IC50 (HeLa-MaTu-ADR cell line) [µM] | IC50 (NCl-H460 cell line) [µM] | IC50 (B16F10 cell line) [µM] | IC50 (HeLa cell line; 4 days incubation, crystal violet staining) [µM] | Structure (SMILES) | IC50 (Caco2 cell line; [3]) [µM] | IC50 (DU145 cell line; [4]) [µM] | IC50 [1] [µM] | IC50 (HeLa-MaTu-ADR cell line; [5]) [µM] | IC50 (NCl-H460 cell line; [6]) [µM] | IC50 (B16F10 cell line; [7]) [µM] |
| --- | --- | --- | --- | --- | --- | --- | --- | --- | --- | --- | --- | --- | --- | --- |
| 2.6 | 0.56 | 2.1 | 0.02 | 0.7 | 1.6 | 0.5 |  | CCOc1cc(F)c(Cn2nc(-c3nc(Nc4ccncn4)cc(Nc4ccncn4)n3)c(C)c2C2CC2)c(F)c1 [Example 2-2-3, 2-[5-cyclopropyl-1-(4-ethoxy-2,6-difluorobenzyl)-4-methyl-1H-pyrazol-3-yl]-N,N′-di(pyrimidin-4-yl)pyrimidine-4,6-diamine] |  |  |  |  |  |  |
|  |  |  |  |  |  |  | 7 | CCOc1cc(F)c(Cn2nc(-c3nc(Nc4ccncc4)c(N4CCOCC4)c(Nc4ccncc4)n3)c(C)c2C2CC2)c(F)c1 [Example 2-2-6, 2-[5-cyclopropyl-1-(4-ethoxy-2,6-difluorobenzyl)-4-methyl-1H-pyrazol-3-yl]-5-(morpholin-4-yl)-N,N′-di(pyridin-4-yl)pyrimidine-4,6-diamine] | 2.6 | 1.9 | 0.22 | 0.82 | 1.1 | 0.99 |

— patent US20160145267A1, “HETEROARYL SUBSTITUTED PYRAZOLES” (BAYER PHARMA AKTIENGESELLSCHAFT, priority 2013, published 2016)
